Test results taken from patent US11026880B2, “Extract of passionflower seeds and cosmetic, pharmaceutical, dermatological and nutraceutical compositions comprising same” (Laboratoires Expanscience, priority 2012, dated 2021).

Key:
Jurkat cells = experiment: Lipid peroxidation in UV-irradiated Jurkat cells (C11-fluorine probe, flow cytometry); type: cell-based; conditions: UV + 50 μM BHT
Experimental: The protective effect of passionflower hydrolysate on lipid peroxidation was evaluated in UV-irradiated Jurkat cells.
Jurkat cells were incubated for 45 minutes in the presence or absence of passionflower hydrolysate or the reference (50 μM BHT) and in the presence of the fluorescent probe specific for the measurement of lipid peroxides (C11-fluorine). This fluorescent probe is a lipid analog that integrates into membranes and whose fluorescence intensity decreases when peroxidized. The cells were then irradiated by UV (UVB 240 mJ/cm^2+UVA 3.5 J/cm^2) in the presence of passionflower hydrolysate or the reference. At the conclusion of the irradiation, the cells were incubated for 30 minutes at 37° C. prior to being analyzed by flow cytometry. The fluorescence intensity results obtained were expressed as a % of the irradiated control.

[1] = test system: Normal human keratinocytes; experiment: Production of reactive oxygen species in keratinocytes under H2O2 stress (DCFH-DA probe); type: cell-based; conditions: for Amount of ROS DFU/OD540 (mean ± standard deviation): 24 hours preincubation, 100 μM H2O2 20 minutes
Experimental: The antioxidant action of passionflower hydrolysate on oxidative stress generated by hydrogen peroxide (H2O2) in keratinocytes was evaluated by measuring the amount of reactive oxygen species produced. This test is based on the use of a probe (DCFH-DA) that breaks down and fluoresces in contact with reactive oxygen species (ROS). The fluorescence emitted will be thus proportional to the amount of ROS produced by the cell in response to oxidative stress. Normal human keratinocytes were preincubated for 24 hours in the presence of passionflower hydrolysate or the reference molecules: 10 μM quercetin or 500 μM vitamin C. The cells were then incubated for 1 hour in the presence of the probe DCFH-DA and then treated with 100 μM H2O2 for 20 minutes, still in the presence of passionflower hydrolysate or the reference molecules. The ROS assay was carried out by measuring the fluorescence emitted. The results were normalized to the number of living cells determined using a neutral red uptake assay carried out in parallel. The amount of ROS emitted is thus expressed as fluorescence density (DFU)/optical density resulting from the neutral red assay (OD540). The results were statistically analyzed by one-way analysis of variance followed by Tukey's test.

SMILES: Cc1cc(C(C)(C)C)c(O)c(C(C)(C)C)c1 [BHT]
- Protection (%) against lipid peroxidation (Jurkat cells): 31%
- Amount of lipid peroxides (% of the irradiated control) (Jurkat cells; UVB 240 mJ/cm^2+UVA 3.5 J/cm^2): 83 % of the irradiated control

SMILES: O=c1c(O)c(-c2ccc(O)c(O)c2)oc2cc(O)cc(O)c12 [Quercetin, quercetin]
- Amount of ROS DFU/OD540 (mean ± standard deviation) ([1]; 10 μM quercetin): 84549.570 ± 9476.724 DFU/OD540
- inhibition at 10 µM ([1]; Homo sapiens, Keratinocyte, 10 μM quercetin, 100 μM H2O2, read-out: Inhibition relative to the H2O2 control (ROS)): 71%

SMILES: O=C1O[C@H]([C@@H](O)CO)C(O)=C1O [Vitamin C, vitamin C]
- Amount of ROS DFU/OD540 (mean ± standard deviation) ([1]; 500 μM vitamin C): 35997.820 ± 10389.067 DFU/OD540
- inhibition at 500 µM ([1]; Homo sapiens, Keratinocyte, 500 μM vitamin C, 100 μM H2O2, read-out: Inhibition relative to the H2O2 control (ROS)): 87%
